Results on six compounds are retold here after patent US20070207952A1, “Long Acting Biologically Active Conjugates” (priority 2003, published 2007).

By IC50 is commonly meant the concentration needed to halve the response being measured. Lower therefore signals greater potency. As a reminder, the half-life is how long it takes for the measured level to halve.

The subject of one series is HIV-1 IIIB. Briefly: Antiviral cytotoxicity (MTT) assay with MT4 cells, HIV-1 IIIB. It counts as cell-based. The settings on record: MT-4 cells, 5 days, average of 2 or 3 experiments.
For the next series, the system named is HIV NL4-3. Nature of the series: Antiviral cytotoxicity (MTT) assay with MT4 cells, HIV NL4-3. It counts as cell-based, HIV-1. As to conditions: MT-4 cells, 5 days, average of 2 or 3 experiments. The procedure:
(§1) Antiviral potency of the peptides was analyzed against HIV-1 HXB2 or NLA-3 strains using a cytotoxicity assay with MT4 cells as previously described (ref 1-3) with minor modifications. MT-4 cells (1.5×10^4/ml) were exposed to 200 50% tissue culture infective doses (TCID50) of viruses in the presence of various concentrations of test compound in 96 well microtiter plates and incubated at 37° C. for 5 days. Cytotoxicity of HIV was measured by the addition of 3-(4,5-dimethylthiazol-2-yl)-2,5-diphenytetrazolium bromide (MMI) solution to each well to a final concentration of 0.75 mg/ml, and incubation for 1 hour a 37° C. After incubation, cells were dissolved in isopropanoyrriton-X 100/HCl (1000:50:25) solution. Absorbance was monitored in a microplate reader (Spectramax, Molecular Devices) at 540 rm and 690 nm. MT-4 cells were obtained from the AIDS Research and Reference Reagent Program (ARRRP, Division of AIDS, NIAID, NIH: MT-4 from Dr. D. Richman). Cells were propagated in RPMI 1640 growth medium supplemented with 10% fetal bovine serum, 50U of penicillin and 50 μg of streptomycin per ml ([Ivitrogen, Carlsbad Calif.).

For series [1] the following is noted: Kilby et al 1998; cited from earlier work.
Another series deals with HBX2 HIV-1. Briefly: Antiviral cytotoxicity assay with MT4 cells, modified peptides and conjugates. The format is cell-based. The settings on record: HBX2 HIV-1, MT4 cells; average of 2-3 experiments. As for the experimental part:
as §1

Where a SMILES comes first, the peptide text is derived from it. [ ]: non-standard residue; d: D form. The star is where a group is joined. Propanoyl(3-maleimido) = O=C1C=CC(=O)N1CCC(=O)*; Nle = CCCC[C@H](N)C(=O)O; AEEA = NCCOCCOCC(=O)O

Regarding `CCCC[C@H](NC(=O)[C@H](Cc1c[nH]c2ccccc12)NC(C)=O)C(=O)N[C@@H](CCC(=O)O)C(=O)N[C@@H](Cc1c[nH]c2ccccc12)C(=O)N[C@@H](CC(=O)O)C(=O)N[C@@H](CCCNC(=N)N)C(=O)N[C@@H](CCCCN)C(=O)N[C@H](C(=O)N[C@@H](CCC(=O)O)C(=O)N[C@@H](CCC(=O)O)C(=O)N[C@@H](Cc1ccc(O)cc1)C(=O)N[C@H](C(=O)N[C@@H](CCCCN)C(=O)N[C@@H](CCCCN)C(=O)N[C@H](C(=O)N[C@@H](CCCCN)C(=O)N[C@@H](CCCCN)C(=O)N[C@@H](CC(C)C)C(=O)N[C@H](C(=O)N[C@@H](CCC(=O)O)C(=O)N[C@@H](CCC(=O)O)C(=O)N[C@@H](CO)C(=O)N[C@@H](CCC(N)=O)C(=O)N[C@@H](CCC(=O)O)C(=O)N[C@@H](CC(C)C)C(=O)N[C@@H](CCC(N)=O)C(=O)N[C@@H](CCC(=O)O)C(=O)N[C@@H](CCCCN)C(=O)N[C@@H](CC(N)=O)C(=O)N[C@@H](CCC(=O)O)C(=O)N[C@@H](CCCCN)C(=O)N[C@@H](CCC(=O)O)C(=O)N[C@@H](CC(C)C)C(=O)N[C@@H](CCCCN)C(N)=O)[C@@H](C)CC)[C@@H](C)CC)[C@@H](C)O)[C@@H](C)CC` [peptide 7, Ac-WXEWDRKIEEYTKKIKKLIEESQELQEKNEKELK-NH2] (Ac-W[Nle]EWDRKIEEYTKKIKKLIEESQELQEKNEKELK-NH2), the 50% inhibitory concentration (IC50) with HIV-1 IIIB was 2.4 nM; with HIV NL4-3, 1.1 nM.

Take enfuvirtide: the IC50 is 4.7 nM with HIV-1 IIIB and 120 nM in the series on HIV NL4-3. The half-life in series [1] was 1.8 h.

In turn, `CCCC[C@H](NC(=O)[C@H](Cc1c[nH]c2ccccc12)NC(=O)COCCOCCNC(=O)CCN1C(=O)C=CC1=O)C(=O)N[C@@H](CCC(=O)O)C(=O)N[C@@H](Cc1c[nH]c2ccccc12)C(=O)N[C@@H](CC(=O)O)C(=O)N[C@@H](CCCNC(=N)N)C(=O)N[C@@H](CCCCN)C(=O)N[C@H](C(=O)N[C@@H](CCC(=O)O)C(=O)N[C@@H](CCC(=O)O)C(=O)N[C@@H](Cc1ccc(O)cc1)C(=O)N[C@H](C(=O)N[C@@H](CCCCN)C(=O)N[C@@H](CCCCN)C(=O)N[C@H](C(=O)N[C@@H](CCCCN)C(=O)N[C@@H](CCCCN)C(=O)N[C@@H](CC(C)C)C(=O)N[C@H](C(=O)N[C@@H](CCC(=O)O)C(=O)N[C@@H](CCC(=O)O)C(=O)N[C@@H](CO)C(=O)N[C@@H](CCC(N)=O)C(=O)N[C@@H](CCC(=O)O)C(=O)N[C@@H](CCC(N)=O)C(=O)N[C@@H](CCC(N)=O)C(=O)N[C@@H](CCC(=O)O)C(=O)N[C@@H](CCCCN)C(=O)N[C@@H](CC(N)=O)C(=O)N[C@@H](CCC(=O)O)C(=O)N[C@@H](CCCCN)C(=O)N[C@@H](CCC(=O)O)C(=O)N[C@@H](CC(C)C)C(=O)N[C@@H](CCCCN)C(N)=O)[C@@H](C)CC)[C@@H](C)CC)[C@@H](C)O)[C@@H](C)CC` [SPI-70038] ({Propanoyl(3-maleimido)-AEEA}-W[Nle]EWDRKIEEYTKKIKKLIEESQEQQEKNEKELK-NH2) returned a half-maximal inhibitory concentration (IC50) with HBX2 HIV-1 of 2 nM.

Regarding `CCCC[C@H](NC(=O)[C@H](Cc1c[nH]c2ccccc12)NC(C)=O)C(=O)N[C@@H](CCC(=O)O)C(=O)N[C@@H](Cc1c[nH]c2ccccc12)C(=O)N[C@@H](CC(=O)O)C(=O)N[C@@H](CCCNC(=N)N)C(=O)N[C@@H](CCCCN)C(=O)N[C@H](C(=O)N[C@@H](CCC(=O)O)C(=O)N[C@@H](CCC(=O)O)C(=O)N[C@@H](Cc1ccc(O)cc1)C(=O)N[C@H](C(=O)N[C@@H](CCCCN)C(=O)N[C@@H](CCCCN)C(=O)N[C@H](C(=O)N[C@@H](CCCCN)C(=O)N[C@@H](CCCCN)C(=O)N[C@@H](CC(C)C)C(=O)N[C@H](C(=O)N[C@@H](CCC(=O)O)C(=O)N[C@@H](CCC(=O)O)C(=O)N[C@@H](C)C(=O)N[C@@H](CCC(N)=O)C(=O)N[C@@H](CCC(=O)O)C(=O)N[C@@H](CCC(N)=O)C(=O)N[C@@H](CCC(N)=O)C(=O)N[C@@H](CCC(=O)O)C(=O)N[C@@H](CCCCN)C(=O)N[C@@H](CC(N)=O)C(=O)N[C@@H](CCC(=O)O)C(=O)N[C@@H](CCCCN)C(=O)N[C@@H](CCC(=O)O)C(=O)N[C@@H](CC(C)C)C(=O)N[C@@H](CCCCN)C(N)=O)[C@@H](C)CC)[C@@H](C)CC)[C@@H](C)O)[C@@H](C)CC` [peptide 8, Ac-WXEWDRKIEEYTKKIKKLIEEAQEQQEKNEKELK-NH2] (Ac-W[Nle]EWDRKIEEYTKKIKKLIEEAQEQQEKNEKELK-NH2), the IC50 was 2.6 nM in the series on HIV-1 IIIB and 1.2 nM with HIV NL4-3.

`CCCC[C@H](NC(=O)[C@H](Cc1c[nH]c2ccccc12)NC(C)=O)C(=O)N[C@@H](CCC(=O)O)C(=O)N[C@@H](Cc1c[nH]c2ccccc12)C(=O)N[C@@H](CC(=O)O)C(=O)N[C@@H](CCCNC(=N)N)C(=O)N[C@@H](CCC(=O)O)C(=O)N[C@H](C(=O)N[C@@H](CC(N)=O)C(=O)N[C@@H](CC(N)=O)C(=O)N[C@@H](Cc1ccc(O)cc1)C(=O)N[C@H](C(=O)N[C@@H](CO)C(=O)N[C@@H](CC(C)C)C(=O)N[C@H](C(=O)N[C@@H](Cc1c[nH]cn1)C(=O)N[C@@H](CO)C(=O)N[C@@H](CCC(N)=O)C(=O)N[C@H](C(=O)N[C@@H](CCC(=O)O)C(=O)N[C@@H](CCC(=O)O)C(=O)N[C@@H](CO)C(=O)N[C@@H](CCC(N)=O)C(=O)N[C@@H](CC(N)=O)C(=O)N[C@@H](CCC(N)=O)C(=O)N[C@@H](CCC(N)=O)C(=O)N[C@@H](CCC(=O)O)C(=O)N[C@@H](CCCCN)C(=O)N[C@@H](CC(N)=O)C(=O)N[C@@H](CCC(=O)O)C(=O)N[C@@H](CCC(N)=O)C(=O)N[C@@H](CCC(=O)O)C(=O)N[C@@H](CC(C)C)C(=O)N[C@@H](CC(C)C)C(N)=O)[C@@H](C)CC)[C@@H](C)CC)[C@@H](C)O)[C@@H](C)CC` [peptide 5, Ac-WXEWDREINNYTSLIHSQIEESQNQQEKNEQELL-NH2] (Ac-W[Nle]EWDREINNYTSLIHSQIEESQNQQEKNEQELL-NH2): the figures for the half-inhibitory concentration (IC50) with HIV-1 IIIB and in the series on HIV NL4-3 were 6.6 nM and 200 nM, respectively.

On to `CCCC[C@H](NC(=O)[C@H](Cc1c[nH]c2ccccc12)NC(C)=O)C(=O)N[C@@H](CCC(=O)O)C(=O)N[C@@H](Cc1c[nH]c2ccccc12)C(=O)N[C@@H](CC(=O)O)C(=O)N[C@@H](CCCNC(=N)N)C(=O)N[C@@H](CCC(=O)O)C(=O)N[C@@H](CCC(N)=O)C(=O)N[C@@H](CC(N)=O)C(=O)N[C@@H](CC(N)=O)C(=O)N[C@@H](Cc1ccc(O)cc1)C(=O)N[C@H](C(=O)N[C@@H](CO)C(=O)N[C@@H](CC(C)C)C(=O)N[C@H](C(=O)N[C@@H](Cc1c[nH]cn1)C(=O)N[C@@H](CO)C(=O)N[C@@H](CC(C)C)C(=O)N[C@H](C(=O)N[C@@H](CCC(=O)O)C(=O)N[C@@H](CCC(=O)O)C(=O)N[C@@H](CO)C(=O)N[C@@H](CCC(N)=O)C(=O)N[C@@H](CC(N)=O)C(=O)N[C@@H](CCC(N)=O)C(=O)N[C@@H](CCC(N)=O)C(=O)N[C@@H](CCC(=O)O)C(=O)N[C@@H](CCCCN)C(=O)N[C@@H](CC(N)=O)C(=O)N[C@@H](CCC(=O)O)C(=O)N[C@@H](CCC(N)=O)C(=O)N[C@@H](CCC(=O)O)C(=O)N[C@@H](CC(C)C)C(=O)N[C@@H](CC(C)C)C(N)=O)[C@@H](C)CC)[C@@H](C)CC)[C@@H](C)O` [peptide 2, Ac-WXEWDREQNNYTSLIHSLIEESQNQQEKNEQELL-NH2] (Ac-W[Nle]EWDREQNNYTSLIHSLIEESQNQQEKNEQELL-NH2), for which the results for the IC50 in the series on HIV-1 IIIB and in the series on HIV NL4-3 were 2.4 nM and 18 nM, respectively.
